# Assays:
# CK1α = target: T1, CK1α (Homo sapiens, UniProt P48729+Q96SW2); assay: Western blot, degradation of substrate protein in hPBMCs; type: cell-based
# T1 construct: effects of the compounds of the present disclosure on the expression of target proteins in cells; endogenous in cells; host or cells: human PBMCs (Milecell Biotechnologies)
# IKZF1 = target: T2, IKZF1 (Homo sapiens, UniProt Q13422+Q96SW2); assay: as above; type: cell-based
# T2 construct: effects of the compounds of the present disclosure on the expression of target proteins in cells; endogenous in cells; host or cells: human PBMCs (Milecell Biotechnologies)
# T2 sequence (Q13422 whole entry): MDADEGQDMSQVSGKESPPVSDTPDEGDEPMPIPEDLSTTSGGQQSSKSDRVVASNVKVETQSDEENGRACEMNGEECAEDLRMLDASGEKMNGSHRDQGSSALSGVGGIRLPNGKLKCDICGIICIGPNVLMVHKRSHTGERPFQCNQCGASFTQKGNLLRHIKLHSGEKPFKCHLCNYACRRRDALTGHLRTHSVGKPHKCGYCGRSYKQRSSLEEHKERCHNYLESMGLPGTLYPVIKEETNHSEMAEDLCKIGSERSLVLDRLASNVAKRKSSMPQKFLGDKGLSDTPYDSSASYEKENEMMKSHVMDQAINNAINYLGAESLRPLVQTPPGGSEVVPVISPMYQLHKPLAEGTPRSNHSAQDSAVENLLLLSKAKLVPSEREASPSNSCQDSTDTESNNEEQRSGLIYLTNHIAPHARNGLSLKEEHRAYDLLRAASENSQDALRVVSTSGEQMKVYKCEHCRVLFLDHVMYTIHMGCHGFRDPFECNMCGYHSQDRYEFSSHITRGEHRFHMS
# T2 sequence (Q96SW2 whole entry): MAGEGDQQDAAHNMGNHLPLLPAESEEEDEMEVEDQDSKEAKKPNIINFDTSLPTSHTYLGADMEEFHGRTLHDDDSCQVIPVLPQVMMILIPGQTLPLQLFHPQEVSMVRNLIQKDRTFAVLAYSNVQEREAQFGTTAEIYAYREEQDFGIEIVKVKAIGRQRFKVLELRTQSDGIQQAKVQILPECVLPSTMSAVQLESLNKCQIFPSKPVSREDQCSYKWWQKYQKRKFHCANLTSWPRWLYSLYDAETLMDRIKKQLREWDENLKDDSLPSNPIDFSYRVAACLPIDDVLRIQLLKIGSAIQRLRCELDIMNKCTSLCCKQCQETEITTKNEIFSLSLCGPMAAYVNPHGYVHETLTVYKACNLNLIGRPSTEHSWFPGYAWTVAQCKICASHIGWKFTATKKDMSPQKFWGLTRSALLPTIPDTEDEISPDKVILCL
# T2 sequence (Q16531 whole entry partner): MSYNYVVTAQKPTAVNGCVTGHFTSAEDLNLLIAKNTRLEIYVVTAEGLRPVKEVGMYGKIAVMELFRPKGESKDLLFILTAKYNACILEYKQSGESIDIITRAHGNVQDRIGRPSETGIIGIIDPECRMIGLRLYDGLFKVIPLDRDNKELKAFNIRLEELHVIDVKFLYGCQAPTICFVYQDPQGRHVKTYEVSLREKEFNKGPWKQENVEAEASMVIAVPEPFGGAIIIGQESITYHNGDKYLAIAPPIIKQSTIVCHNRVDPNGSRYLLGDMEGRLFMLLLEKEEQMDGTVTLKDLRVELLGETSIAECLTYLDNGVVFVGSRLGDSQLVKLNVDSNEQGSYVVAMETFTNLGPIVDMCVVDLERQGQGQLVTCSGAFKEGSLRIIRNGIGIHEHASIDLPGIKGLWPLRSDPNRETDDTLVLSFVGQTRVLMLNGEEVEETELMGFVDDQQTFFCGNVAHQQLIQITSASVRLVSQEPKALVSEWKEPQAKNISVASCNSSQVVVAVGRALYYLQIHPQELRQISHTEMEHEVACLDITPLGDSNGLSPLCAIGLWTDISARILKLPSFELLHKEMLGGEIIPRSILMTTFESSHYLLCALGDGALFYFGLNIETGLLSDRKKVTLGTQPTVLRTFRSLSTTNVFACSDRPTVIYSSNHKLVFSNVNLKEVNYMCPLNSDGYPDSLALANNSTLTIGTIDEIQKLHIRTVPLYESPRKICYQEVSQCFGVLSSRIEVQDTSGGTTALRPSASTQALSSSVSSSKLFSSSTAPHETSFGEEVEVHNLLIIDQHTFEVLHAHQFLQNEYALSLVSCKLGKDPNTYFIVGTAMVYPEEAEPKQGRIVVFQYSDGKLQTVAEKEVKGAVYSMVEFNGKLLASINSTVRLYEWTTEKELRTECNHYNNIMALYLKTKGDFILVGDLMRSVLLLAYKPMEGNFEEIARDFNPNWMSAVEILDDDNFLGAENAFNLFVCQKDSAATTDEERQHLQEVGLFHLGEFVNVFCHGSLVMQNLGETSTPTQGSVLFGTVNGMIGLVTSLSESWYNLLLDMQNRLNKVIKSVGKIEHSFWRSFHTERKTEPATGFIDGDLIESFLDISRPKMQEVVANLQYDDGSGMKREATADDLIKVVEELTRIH
# IKZF2 = target: T3, IKZF2 (Homo sapiens, UniProt Q96SW2+Q9UKS7); assay: as above; type: cell-based
# T3 construct: effects of the compounds of the present disclosure on the expression of target proteins in cells; endogenous in cells; host or cells: human PBMCs (Milecell Biotechnologies)
# T3 sequence (Q9UKS7 whole entry): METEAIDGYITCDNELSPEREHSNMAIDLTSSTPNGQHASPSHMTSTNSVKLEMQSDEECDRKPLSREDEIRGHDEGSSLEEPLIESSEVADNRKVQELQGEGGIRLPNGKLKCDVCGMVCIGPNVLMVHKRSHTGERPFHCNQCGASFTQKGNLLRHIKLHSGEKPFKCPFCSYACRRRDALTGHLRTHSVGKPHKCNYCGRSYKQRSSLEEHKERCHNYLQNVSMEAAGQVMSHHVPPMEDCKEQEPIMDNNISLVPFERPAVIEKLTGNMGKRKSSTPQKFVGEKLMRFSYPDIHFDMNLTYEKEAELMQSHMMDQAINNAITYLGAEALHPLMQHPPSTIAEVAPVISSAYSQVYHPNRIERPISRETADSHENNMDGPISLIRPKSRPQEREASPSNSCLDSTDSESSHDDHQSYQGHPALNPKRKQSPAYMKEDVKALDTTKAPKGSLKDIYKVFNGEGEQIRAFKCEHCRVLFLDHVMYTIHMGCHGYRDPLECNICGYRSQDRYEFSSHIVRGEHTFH
# T3 sequence (Q96SW2 whole entry): as the sequence (Q96SW2 whole entry) above
# T3 sequence (Q16531 whole entry partner): as the sequence (Q16531 whole entry partner) above
# IKZF3 = target: T4, IKZF3 (Homo sapiens, UniProt Q96SW2+Q9UKT9); assay: as above; type: cell-based
# T4 construct: effects of the compounds of the present disclosure on the expression of target proteins in cells; endogenous in cells; host or cells: human PBMCs (Milecell Biotechnologies)
# T4 sequence (Q9UKT9 whole entry): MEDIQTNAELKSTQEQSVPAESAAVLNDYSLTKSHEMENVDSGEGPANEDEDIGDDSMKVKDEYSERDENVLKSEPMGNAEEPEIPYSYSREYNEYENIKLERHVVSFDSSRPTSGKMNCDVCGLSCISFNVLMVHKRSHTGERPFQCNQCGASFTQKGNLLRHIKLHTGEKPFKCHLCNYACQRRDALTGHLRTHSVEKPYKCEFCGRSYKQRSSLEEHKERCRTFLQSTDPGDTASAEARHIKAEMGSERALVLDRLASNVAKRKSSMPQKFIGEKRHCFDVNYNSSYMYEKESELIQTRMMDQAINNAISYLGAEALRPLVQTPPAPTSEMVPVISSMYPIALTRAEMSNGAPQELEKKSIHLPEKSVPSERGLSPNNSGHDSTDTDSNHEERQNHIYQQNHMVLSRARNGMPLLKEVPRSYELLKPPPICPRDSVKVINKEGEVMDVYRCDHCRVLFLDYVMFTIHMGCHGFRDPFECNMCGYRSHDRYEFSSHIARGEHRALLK
# T4 sequence (Q96SW2 whole entry): as the sequence (Q96SW2 whole entry) above
# T4 sequence (Q16531 whole entry partner): as the sequence (Q16531 whole entry partner) above
# WEE1 = target: T5, WEE1 (Homo sapiens, UniProt P30291+Q96SW2); assay: as above; type: cell-based
# T5 construct: effects of the compounds of the present disclosure on the expression of target proteins in cells; endogenous in cells; host or cells: human PBMCs (Milecell Biotechnologies)
# T5 sequence (P30291 whole entry): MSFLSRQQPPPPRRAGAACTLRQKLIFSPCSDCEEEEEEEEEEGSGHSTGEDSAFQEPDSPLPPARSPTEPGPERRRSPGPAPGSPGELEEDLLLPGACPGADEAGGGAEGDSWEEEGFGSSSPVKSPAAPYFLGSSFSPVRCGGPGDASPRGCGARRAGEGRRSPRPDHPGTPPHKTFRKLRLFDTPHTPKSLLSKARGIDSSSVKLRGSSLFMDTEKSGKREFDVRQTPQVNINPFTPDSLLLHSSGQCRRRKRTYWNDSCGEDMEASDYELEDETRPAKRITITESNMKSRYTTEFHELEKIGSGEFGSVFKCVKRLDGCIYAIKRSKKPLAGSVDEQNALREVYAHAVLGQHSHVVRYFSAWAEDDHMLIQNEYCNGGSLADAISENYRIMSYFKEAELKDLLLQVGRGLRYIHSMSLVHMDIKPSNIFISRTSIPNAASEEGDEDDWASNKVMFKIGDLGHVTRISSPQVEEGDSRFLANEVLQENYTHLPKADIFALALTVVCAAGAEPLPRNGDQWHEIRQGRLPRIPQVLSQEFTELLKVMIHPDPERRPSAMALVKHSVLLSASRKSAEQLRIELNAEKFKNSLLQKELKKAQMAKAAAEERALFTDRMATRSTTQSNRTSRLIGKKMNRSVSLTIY
# T5 sequence (Q96SW2 whole entry): as the sequence (Q96SW2 whole entry) above
# T5 sequence (Q16531 whole entry partner): as the sequence (Q16531 whole entry partner) above
# GSPT1 = assay: as above; type: cell-based, Human
# [1] = target: T6, human Cereblon WT GST-tagged protein (Homo sapiens, UniProt Q96SW2); assay: CRBN-binding affinity, HTRF (CEREBLON BINDING kit); conditions: for inhibition at 0.5 µM: read-out: Inhibition Rate at 0.5 µM (%); for inhibition at 2 µM: read-out: Inhibition Rate at 2 µM (%)
# T6 construct: purchased CISBIO 64BDCRBNPEH
# T6 sequence (Q96SW2 whole entry): as the sequence (Q96SW2 whole entry) above
# [2] = tested on: Human multiple myeloma peripheral blood B lymphocyte cell (RPMI-8226); assay: Tumor cell proliferation inhibition (CellTiter-Meiluncell luminescent cell viability assay); conditions: RPMI-8226, 96 h; for inhibition at 0.01 µM: read-out: Inhibition Rate at 10 nM (%); for inhibition at 0.5 µM: read-out: Inhibition Rate at 500 nM (%)
# [3] = tested on: Human multiple myeloma cell (MM.1S); assay: as above; conditions: for inhibition at 0.01 µM / inhibition at 0.5 µM: Homo sapiens, MM1.S, 96 h; for inhibition at 0.01 µM: read-out: Inhibition Rate at 10 nM (%); for inhibition at 0.5 µM: read-out: Inhibition Rate at 500 nM (%); for Inhibition Rate at 500 nM (%): MM.1S, 96 hours
# Description: (§1) The tumor cells used herein were cultured in a cell culture medium listed in table 2 at 37°C in an incubator with 5% CO2. Prior to experimentation, all cell lines used were correctly identified by STR profiling, and tested negative for mycoplasma contamination using a mycoplasma detection kit through routine screenings.
# (§2) The IC50 values of the compounds of the present disclosure (including the compounds in Table 1 and Examples) were determined using the CellTiter-Meiluncell Luminescent Cell Viability Assay Kit from Dalian Meilun Biotech Co., Ltd. The detailed procedure is as follows: Tumor cells were seeded in 96-well cell culture plates at the densities specified in Table 3. On the following day, the test compounds of the present disclosure were subjected to serial dilution. The dilution can be performed according to one of the following two methods: • (1) The first dilution method: The test compounds of the present disclosure (including the compounds in Table 1 and Examples) were subjected to 5-fold serial dilutions starting from a highest concentration of 2000 µM, resulting in a total of 9 concentrations from high to low (2000, 400, 80, 16, 3.2, 0.64, 0.128, 0.0256, 0.00512 µM). Subsequently, 0.5 µL of the test compound dilution was transferred into the 96-well plate containing the cells, with each well containing 100 µL of cell culture medium. […] Into the 96-well plate, the diluted test compounds and corresponding detection reagents were added, resulting in final test compound concentrations of 500 nM and 10 nM, respectively. The experimental procedure is described below using the diluted 2 µM test compound as an example.
# (§3) 0.5 µL of the aforementioned diluted compound of the present disclosure (including the compounds in Table 1 and Examples) was added to the seeded cells in 100 µL of medium, yielding a final test compound concentration of 10 nM. After the cells were treated with the compounds of the present disclosure for a specified period, the cell viability assay reagent was added to the culture medium according to the kit's instructions to determine cell viability. […] All controls were treated using the same procedure as the compounds of the present disclosure. The growth inhibition curves for the compounds of the present disclosure were plotted using Prism GraphPad software, and the IC50 values were calculated therefrom.
# [4] = tested on: Human acute T lymphocytic leukemia cell (Molt4); assay: as above; conditions: MOLT-4, 96 h
# Description: as §1, §2, §3
# [5] = tested on: Human myeloid monocytic leukemia cell (MV-4-11); assay: as above; conditions: MV4-11, 96 h; for inhibition at 0.01 µM: read-out: Inhibition Rate at 10 nM (%); for inhibition at 0.5 µM: read-out: Inhibition Rate at 500 nM (%)
# [6] = tested on: Human breast cancer cell (MCF-7); assay: as above; conditions: MCF7, 96 h; for inhibition at 0.01 µM: read-out: Inhibition Rate at 10 nM (%); for inhibition at 0.5 µM: read-out: Inhibition Rate at 500 nM (%)
# [7] = Western blot, 24 hours of compound treatment, compounds tested at 50 nM and 500 nM (concentration for the table not stated)
# [8] = 24 hours treatment, compounds at 50 nM and 500 nM (concentration behind the class not stated)
# T1 sequence (P48729 whole entry): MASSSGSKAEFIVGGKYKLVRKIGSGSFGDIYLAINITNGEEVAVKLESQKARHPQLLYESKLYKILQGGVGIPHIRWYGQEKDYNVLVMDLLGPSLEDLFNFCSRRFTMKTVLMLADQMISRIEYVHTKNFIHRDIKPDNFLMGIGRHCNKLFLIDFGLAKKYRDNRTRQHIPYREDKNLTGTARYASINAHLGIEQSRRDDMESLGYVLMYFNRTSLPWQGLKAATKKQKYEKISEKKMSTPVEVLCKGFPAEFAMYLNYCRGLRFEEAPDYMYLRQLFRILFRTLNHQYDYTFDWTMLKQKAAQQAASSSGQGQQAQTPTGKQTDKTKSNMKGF
# T1 sequence (Q96SW2 whole entry): as the sequence (Q96SW2 whole entry) above
# T1 sequence (Q16531 whole entry partner): as the sequence (Q16531 whole entry partner) above
SMILES,CK1α substrate protein remaining % (CK1α; [7]),IKZF 1 substrate protein remaining % (IKZF1; [7]),IKZF2 substrate protein remaining % (IKZF2; [7]),IKZF3 substrate protein remaining % (IKZF3; [7]),Wee1 substrate protein remaining % (WEE1; [7]),GSPT1 substrate protein remaining % (GSPT1; [7]),inhibition at 0.5 µM [1],inhibition at 2 µM [1],inhibition at 0.01 µM [2],inhibition at 0.5 µM [2],inhibition at 0.01 µM [3],inhibition at 0.01 µM [5],inhibition at 0.5 µM [5],inhibition at 0.01 µM [6],inhibition at 0.5 µM [6],further results
"O=C1CCC(N2Cc3c(CN4C[C@@H]5C[C@H]4CN5C(c4ccccc4)c4ccccc4)cccc3C2=S)C(=O)N1 (stereo partly drawn) [GT-08207, 3-(4-(((1 S,4S)-5-benzhydryl-2,5-diazabicyclo[2.2.1]heptan-2-yl)methyl)-1-thioxoisoindolin-2-yl)piperidine-2,6-dione]",B (80%< substrate protein remaining %≤ 100%),A (0% ≤ substrate protein remaining % ≤ 80%),B (80%< substrate protein remaining %≤ 100%),B (80%< substrate protein remaining %≤ 100%),A (0% ≤ substrate protein remaining % ≤ 80%),A (0% ≤ substrate protein remaining % ≤ 80%),40 to 53%,60 to 80%,50 to 60%,60 to 70%,,,,,,
"O=C1CCC(N2Cc3c(CN4CCN(CC5=C(c6ccc(F)cc6)CCCC5)CC4)cccc3C2=S)C(=O)N1 (centres unmarked) [GT-08293, 3-(4-((4-((4'-fluoro-3,4,5,6-tetrahydro-[1,1'-biphenyl]-2-yl)methyl)piperazin-1-yl)methyl)-1-thioxoisoindolin-2-yl)piperidine-2,6-dione]",B (80%< substrate protein remaining %≤ 100%),B (80%< substrate protein remaining %≤ 100%),B (80%< substrate protein remaining %≤ 100%),B (80%< substrate protein remaining %≤ 100%),A (0% ≤ substrate protein remaining % ≤ 80%),B (80%< substrate protein remaining %≤ 100%),30 to 40%,60 to 80%,20 to 30%,40 to 50%,,,,,,
"Cn1cc(C2CCN(Cc3ccc4c(c3)CN(C3CCC(=O)NC3=O)C4=S)CC2)c2ccc(F)cc21 (centres unmarked) [GT-09267, 3-(5-((4-(6-fluoro-1-methyl-1H-indol-3-yl)piperidin-1-yl)methyl)-1-thioxoisoindolin-2-yl)piperidine-2,6-dione]",,,,,,,53 to 60%,80 to 100%,,,70 to 80%,80 to 100%,80 to 100%,5 to 10%,70 to 80%,CK1α substrate protein remaining % (CK1α; [8]): B (80%< substrate protein remaining %≤ 100%); IKZF 1 substrate protein remaining % (IKZF1; [8]): A (0% ≤ substrate protein remaining % ≤ 80%); IKZF2 substrate protein remaining % (IKZF2; [8]): A (0% ≤ substrate protein remaining % ≤ 80%); IKZF3 substrate protein remaining % (IKZF3; [8]): A (0% ≤ substrate protein remaining % ≤ 80%); Wee1 substrate protein remaining % (WEE1; [8]): A (0% ≤ substrate protein remaining % ≤ 80%); GSPT1 substrate protein remaining % (GSPT1; [8]): A (0% ≤ substrate protein remaining % ≤ 80%); inhibition at 0.5 µM [3]: 80 to 100%; inhibition at 0.01 µM ([4]; read-out: Inhibition Rate at 10 nM (%)): 80 to 100%; inhibition at 0.5 µM ([4]; read-out: Inhibition Rate at 500 nM (%)): 80 to 100%
"O=C1CCC(N2Cc3c(CN4CCN(C(c5ccccc5)c5ccncc5)CC4)cccc3C2=S)C(=O)N1 (centres unmarked) [GT-08204, 3-(4-((4-(phenyl(pyridin-4-yl)methyl)piperazin-1-yl)methyl)-1-thioxoisoindolin-2-yl)piperidine-2,6-dione]",B (80%< substrate protein remaining %≤ 100%),B (80%< substrate protein remaining %≤ 100%),B (80%< substrate protein remaining %≤ 100%),B (80%< substrate protein remaining %≤ 100%),A (0% ≤ substrate protein remaining % ≤ 80%),B (80%< substrate protein remaining %≤ 100%),40 to 53%,80 to 100%,60 to 70%,70 to 80%,,,,,,
"O=C1CCC(N2Cc3c(CN4CCN(c5n[nH]c6cc(F)ccc56)CC4)cccc3C2=S)C(=O)N1 (centres unmarked) [GT-08840, 3-(4-((4-(6-fluoro-1H-indazol-3-yl)piperazin-1-yl)methyl)-1-thioxoisoindolin-2-yl)piperidine-2,6-dione]",B (80%< substrate protein remaining %≤ 100%),B (80%< substrate protein remaining %≤ 100%),B (80%< substrate protein remaining %≤ 100%),B (80%< substrate protein remaining %≤ 100%),A (0% ≤ substrate protein remaining % ≤ 80%),B (80%< substrate protein remaining %≤ 100%),60 to 80%,80 to 100%,,,,40 to 60%,40 to 60%,50 to 60%,60 to 70%,
"Cc1ccc(N2CCN(Cc3cccc4c3CN(C3CCC(=O)NC3=O)C4=S)CC2)c(C)c1 (centres unmarked) [GT-08504, 3-(4-((4-(2,4-dimethylphenyl)piperazin-1-yl)methyl)-1-thioxoisoindolin-2-yl)piperidine-2,6-dione]",B (80%< substrate protein remaining %≤ 100%),B (80%< substrate protein remaining %≤ 100%),B (80%< substrate protein remaining %≤ 100%),A (0% ≤ substrate protein remaining % ≤ 80%),A (0% ≤ substrate protein remaining % ≤ 80%),A (0% ≤ substrate protein remaining % ≤ 80%),30 to 40%,60 to 80%,,,30 to 40%,40 to 60%,40 to 60%,20 to 30%,40 to 50%,inhibition at 0.5 µM [3]: 50 to 60%
"O=C1CCC(N2Cc3c(CN4CCN(c5cccc6sccc56)CC4)cccc3C2=S)C(=O)N1 (centres unmarked) [GT-08364, 3-(4-((4-(benzo[b]thiophen-4-yl)piperazin-1-yl)methyl)-1-thioxoisoindolin-2-yl)piperidine-2,6-dione]",B (80%< substrate protein remaining %≤ 100%),B (80%< substrate protein remaining %≤ 100%),B (80%< substrate protein remaining %≤ 100%),B (80%< substrate protein remaining %≤ 100%),A (0% ≤ substrate protein remaining % ≤ 80%),A (0% ≤ substrate protein remaining % ≤ 80%),40 to 53%,80 to 100%,20 to 30%,40 to 50%,40 to 50%,,,,,Inhibition Rate at 500 nM (%) [3]: la8
"Cc1cc(N2CCN(Cc3ccc4c(c3)CN(C3CCC(=O)NC3=O)C4=S)CC2)cc(C)n1 (centres unmarked) [GT-09247, 3-(5-((4-(2,6-dimethylpyridin-4-yl)piperazin-1-yl)methyl)-1-thioxoisoindolin-2-yl)piperidine-2,6-dione]",,,,,,,60 to 80%,80 to 100%,,,50 to 60%,40 to 60%,40 to 60%,20 to 30%,40 to 50%,Inhibition Rate at 500 nM (%) [3]: la7

# — patent EP4745135A1 (Gluetacs Therapeutics (Shanghai) Co., Ltd., priority 2023, dated 2025)
